We go through 36 molecules from ChEMBL document CHEMBL1806464, “Development of substrate analogue inhibitors for the human airway trypsin-like protease HAT” (Bioorg Med Chem Lett, 2011).

The target of assay [1] is T1, Transmembrane protease serine 11D (Homo sapiens, UniProt O60235).
T1 sequence (O60235 whole entry): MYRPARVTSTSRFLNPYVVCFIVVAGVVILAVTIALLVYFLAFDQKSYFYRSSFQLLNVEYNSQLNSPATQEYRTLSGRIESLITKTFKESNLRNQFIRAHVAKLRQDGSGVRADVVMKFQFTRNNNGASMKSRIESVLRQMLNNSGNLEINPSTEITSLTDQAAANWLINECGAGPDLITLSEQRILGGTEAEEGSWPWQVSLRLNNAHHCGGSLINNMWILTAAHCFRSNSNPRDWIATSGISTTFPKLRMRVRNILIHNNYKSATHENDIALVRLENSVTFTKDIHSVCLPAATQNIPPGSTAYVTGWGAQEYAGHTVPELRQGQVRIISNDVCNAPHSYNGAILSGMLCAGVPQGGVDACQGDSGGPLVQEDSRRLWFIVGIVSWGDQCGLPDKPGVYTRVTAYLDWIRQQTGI
As to the kind of experiment: Inhibition of human recombinant airway trypsin-like protease HAT using D-cyclohexylalanine-Pro-Arg-AMC as substrate by fluorescence plate reader analysis.

The target in assay [2] is Prothrombin (Homo sapiens, UniProt P00734). Nature of the assay: Inhibition of thrombin.
For assay [3], the target named is Coagulation factor X (Homo sapiens, UniProt P00742). Nature of the assay: Inhibition of factor 10a.
The target of assay [4] is Plasminogen (Homo sapiens, UniProt P00747). Nature of the assay: Inhibition of plasmin.

One may read the Ki as the dissociation constant of the complex between target and ligand, obtained from inhibition or displacement.

Plasminogen, sequence (P00747 97-580 limits assumed): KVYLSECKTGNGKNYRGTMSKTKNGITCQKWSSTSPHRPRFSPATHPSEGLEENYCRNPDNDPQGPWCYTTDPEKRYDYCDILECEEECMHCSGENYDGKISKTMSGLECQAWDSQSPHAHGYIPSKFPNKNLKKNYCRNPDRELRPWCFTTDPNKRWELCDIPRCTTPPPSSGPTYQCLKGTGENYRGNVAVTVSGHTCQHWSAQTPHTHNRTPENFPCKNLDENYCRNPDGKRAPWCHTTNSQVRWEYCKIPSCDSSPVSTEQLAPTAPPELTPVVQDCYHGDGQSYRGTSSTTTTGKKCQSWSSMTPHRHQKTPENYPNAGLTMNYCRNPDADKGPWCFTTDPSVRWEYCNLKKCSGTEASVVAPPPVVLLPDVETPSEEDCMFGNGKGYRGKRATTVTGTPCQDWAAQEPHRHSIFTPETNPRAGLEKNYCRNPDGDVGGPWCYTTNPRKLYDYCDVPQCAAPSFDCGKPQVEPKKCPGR
Plasminogen, sequence (P00747 581-810 limits assumed): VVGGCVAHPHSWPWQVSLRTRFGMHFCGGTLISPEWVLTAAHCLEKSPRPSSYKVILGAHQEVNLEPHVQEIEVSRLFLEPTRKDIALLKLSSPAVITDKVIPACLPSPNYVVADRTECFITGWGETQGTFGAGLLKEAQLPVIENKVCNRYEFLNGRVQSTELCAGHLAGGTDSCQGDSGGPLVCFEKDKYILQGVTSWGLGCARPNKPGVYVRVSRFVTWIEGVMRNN
Coagulation factor X, sequence (P00742 41-179 limits assumed): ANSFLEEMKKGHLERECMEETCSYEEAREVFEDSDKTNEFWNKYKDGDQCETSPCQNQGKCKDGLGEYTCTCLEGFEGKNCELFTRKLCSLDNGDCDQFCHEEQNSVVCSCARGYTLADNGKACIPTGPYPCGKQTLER
Coagulation factor X, sequence (P00742 235-488 limits assumed): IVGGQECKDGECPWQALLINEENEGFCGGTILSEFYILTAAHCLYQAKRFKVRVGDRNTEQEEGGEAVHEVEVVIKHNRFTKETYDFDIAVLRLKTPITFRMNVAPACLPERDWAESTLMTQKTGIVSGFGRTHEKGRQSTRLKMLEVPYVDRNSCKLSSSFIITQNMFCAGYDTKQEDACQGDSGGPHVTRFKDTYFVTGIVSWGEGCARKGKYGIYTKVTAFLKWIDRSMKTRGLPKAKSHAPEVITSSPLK

In the case of `N=C(N)c1ccc(CNC(=O)[C@@H]2CCCN2C(=O)[C@@H](Cc2ccc(C(=N)N)cc2)NS(=O)(=O)Cc2ccccc2)cc1`, the inhibition constant (Ki) in assay [1] amounted to 168 nM.

In the case of `CN(C)CCCN1CCN(C(=O)C[C@@H](NS(=O)(=O)Cc2ccccc2)C(=O)N2CCC[C@H]2C(=O)NCc2ccc(C(=N)N)cc2)CC1`, the Ki in assay [1] amounted to 149 nM.

For the molecule `N=C(N)c1ccc(CNC(=O)[C@@H]2CCCN2C(=O)[C@@H](CC(=O)N2CCN(C(=O)OCc3ccccc3)CC2)NS(=O)(=O)Cc2ccccc2)cc1`, the inhibitory constant (Ki) in assay [1] stood at 135 nM.

Regarding `N=C(N)c1ccc(CNC(=O)[C@@H]2CCCN2C(=O)[C@@H](CCCCN)NS(=O)(=O)Cc2ccccc2)cc1`, the Ki in assay [1] turned out to be 40 nM; in assay [2], 1 nM; in assay [3], 52 nM; in assay [4], 63 nM.

`CC(C)[C@H](NCc1ccc(C(=N)N)cc1)C(=O)[C@@H](CCCNC(=N)N)NS(=O)(=O)Cc1ccccc1`: the Ki came out at 22 nM in assay [1], 66 nM in assay [2], 21 nM in assay [3] and 2810 nM in assay [4].

Take `N#Cc1ccc(C[C@@H](NS(=O)(=O)Cc2ccccc2)C(=O)N2CCC[C@H]2C(=O)NCc2ccc(C(=N)N)cc2)cc1`: in assay [1], the inhibition constant (Ki) is 311 nM.

With `N=C(N)c1ccc(CNC(=O)[C@H](CCCCNC(=O)OCc2ccccc2)NC(=O)[C@@H](CO)NS(=O)(=O)Cc2ccccc2)cc1`, the Ki in assay [1] turned out to be 51 nM.

`CC(C)C[C@@H](NS(=O)(=O)Cc1ccccc1)C(=O)N1CCC[C@H]1C(=O)NCc1ccc(C(=N)N)cc1`: the Ki in assay [1] was 120 nM.

Turning to `N=C(N)NCCC[C@H](NCc1ccc(C(=N)N)cc1)C(=O)[C@@H](CCCNC(=N)N)NS(=O)(=O)Cc1ccccc1`, the inhibition constant (Ki) in assay [1] turned out to be 457 nM.

For the molecule `N=C(N)c1ccc(CNC(=O)[C@@H]2CCCN2C(=O)[C@@H](CCCCNC(=O)OCc2ccccc2)NS(=O)(=O)Cc2ccccc2)cc1`, the inhibition constant (Ki) in assay [1] was determined as 53 nM.

As for `C[C@H](NCc1ccc(C(=N)N)cc1)C(=O)[C@@H](CCCN=C(N)N)NS(=O)(=O)Cc1ccccc1`, the inhibitory constant (Ki) stood at 30 nM in assay [1], 74 nM in assay [2], 1.4 nM in assay [3] and 590 nM in assay [4].

For `N=C(N)c1ccc(CNC(=O)[C@@H]2CCCN2C(=O)[C@@H](CC(=O)N2CCN(Cc3ccccc3)CC2)NS(=O)(=O)Cc2ccccc2)cc1`, in assay [1], the inhibition constant (Ki) was determined as 158 nM.

For the molecule `N=C(N)c1ccc(CN[C@@H](CCCCNC(=O)OCc2ccccc2)C(=O)[C@@H](CCCN=C(N)N)NS(=O)(=O)Cc2ccccc2)cc1`, in assay [1], the inhibition constant Ki turned out to be 34 nM.

In the case of `N=C(N)c1ccc(CNC(=O)[C@@H]2CCCN2C(=O)[C@@H](CC(=O)O)NS(=O)(=O)Cc2ccccc2)cc1`, the inhibition constant (Ki) in assay [1] worked out at 1420 nM.

In the case of `N=C(N)c1ccc(CNC(=O)[C@@H]2CCCN2C(=O)[C@@H](CC(=O)N2CCN(c3ncccn3)CC2)NS(=O)(=O)Cc2ccccc2)cc1`, the Ki in assay [1] stood at 43 nM.

On to `CC[C@H](C)[C@H](NCc1ccc(C(=N)N)cc1)C(=O)[C@@H](CCCN=C(N)N)NS(=O)(=O)Cc1ccccc1`, for which, in assay [1], the inhibitory constant (Ki) was found to be 23 nM.

As to `N=C(N)NCCC[C@@H](NS(=O)(=O)Cc1ccccc1)C(=O)[C@H](CO)NCc1ccc(C(=N)N)cc1`, the Ki in assay [1] is 34 nM; in assay [2], 1610 nM; in assay [3], 14.5 nM; in assay [4], 161 nM.

On to `CC(C)N1CCN(C(=O)C[C@@H](NS(=O)(=O)Cc2ccccc2)C(=O)N2CCC[C@H]2C(=O)NCc2ccc(C(=N)N)cc2)CC1`, for which, in assay [1], the Ki worked out at 221 nM.

Turning to `N=C(N)c1ccc(CNC(=O)[C@@H]2CCCN2C(=O)[C@@H](CC(=O)N2CCOCC2)NS(=O)(=O)Cc2ccccc2)cc1`, the inhibition constant Ki in assay [1] stood at 183 nM.

Take `Cc1ccc(C)c(N2CCN(C(=O)C[C@@H](NS(=O)(=O)Cc3ccccc3)C(=O)N3CCC[C@H]3C(=O)NCc3ccc(C(=N)N)cc3)CC2)c1`: the inhibitory constant (Ki) in assay [1] amounted to 73 nM.

On to `CC(C)(C)OC(=O)C[C@H](NCc1ccc(C(=N)N)cc1)C(=O)[C@@H](CCCNC(=N)N)NS(=O)(=O)Cc1ccccc1`, for which the inhibition constant (Ki) in assay [1] amounted to 512 nM.

As for `CC(C)C[C@H](NCc1ccc(C(=N)N)cc1)C(=O)[C@@H](CCCN=C(N)N)NS(=O)(=O)Cc1ccccc1`, the Ki in assay [1] amounted to 47 nM.

Regarding `N=C(N)c1ccc(CNC(=O)[C@@H]2CCCN2C(=O)[C@@H](CCC(=O)N2CCN(C(=O)OCc3ccccc3)CC2)NS(=O)(=O)Cc2ccccc2)cc1`, the Ki is 38 nM in assay [1], 9.8 nM in assay [2], 397 nM in assay [3] and 1160 nM in assay [4].

Take `N=C(N)c1ccc(CNC(=O)CNC(=O)[C@@H](CCCN=C(N)N)NS(=O)(=O)Cc2ccccc2)cc1`: the Ki in assay [1] is 430 nM.

Take `N=C(N)c1ccc(CNC(=O)[C@@H]2CCCN2C(=O)[C@@H](CCC(=O)N2CCNCC2)NS(=O)(=O)Cc2ccccc2)cc1`: the Ki in assay [1] came out at 68 nM; in assay [2], 13.5 nM; in assay [3] it was 565 nM; in assay [4] it was 114 nM.

`N=C(N)c1ccc(CNC(=O)[C@@H]2CCCN2C(=O)[C@@H](CCCCN=C(N)N)NS(=O)(=O)Cc2ccccc2)cc1`: the Ki in assay [2] was 0.39 nM; in assay [3] it was 2.7 nM; in assay [4], 17.5 nM.

Take `N=C(N)c1ccc(CNC(=O)[C@@H]2CCCN2C(=O)[C@@H](CC(=O)N2CCN(CCO)CC2)NS(=O)(=O)Cc2ccccc2)cc1`: the Ki in assay [1] is 210 nM.

Consider `N=C(N)c1ccc(CNC(=O)[C@@H]2CCCN2C(=O)[C@@H](CC(=O)N2CCNCC2)NS(=O)(=O)Cc2ccccc2)cc1`, for which the inhibitory constant (Ki) in assay [1] turned out to be 202 nM.

As for `CC(C)(C)OC(=O)CC[C@@H](NS(=O)(=O)Cc1ccccc1)C(=O)N1CCC[C@H]1C(=O)NCc1ccc(C(=N)N)cc1`, the inhibition constant Ki in assay [1] is 36 nM; in assay [2], 6.7 nM; in assay [3], 31 nM; in assay [4], 1520 nM.

For the molecule `CC(C)[C@@H](NS(=O)(=O)Cc1ccccc1)C(=O)N1CCC[C@H]1C(=O)NCc1ccc(C(=N)N)cc1`, in assay [1], the inhibitory constant (Ki) worked out at 76 nM.

Turning to `N=C(N)NCCC[C@@H](NS(=O)(=O)Cc1ccccc1)C(=O)[C@H](Cc1ccccc1)NCc1ccc(C(=N)N)cc1`, in assay [1], the Ki stood at 57 nM.

As for `N=C(N)c1ccc(CNC(=O)[C@@H]2CCCN2C(=O)[C@@H](CC2CCCCC2)NS(=O)(=O)Cc2ccccc2)cc1`, the Ki in assay [1] came out at 108 nM.

For `N=C(N)NCCC[C@@H](NS(=O)(=O)Cc1ccccc1)C(=O)[C@H](CC(=O)O)NCc1ccc(C(=N)N)cc1`, the Ki in assay [1] came to 422 nM.

As to `[H]/N=C(\N)c1ccc(CNC(=O)[C@@H]2CCCN2C(=O)[C@@H](Cc2ccccc2)NS(=O)(=O)Cc2ccccc2)cc1`, the inhibition constant Ki in assay [1] turned out to be 98 nM.

In the case of `N=C(N)c1ccc(CNC(=O)[C@@H]2CCCN2C(=O)[C@@H](CCc2ccccc2)NS(=O)(=O)Cc2ccccc2)cc1`, the Ki in assay [1] is 63 nM.

With `CC(C)(C)OC(=O)C[C@@H](NS(=O)(=O)Cc1ccccc1)C(=O)N1CCC[C@H]1C(=O)NCc1ccc(C(=N)N)cc1`, the inhibition constant (Ki) in assay [1] turned out to be 38 nM.
